The test system of series [1] is ceramide-activated protein kinase. Briefly: EGFR peptide phosphorylation by kinase in A-431 microsomal membranes / postnuclear supernatant. Format: biochemical, human (A-431 epidermoid carcinoma cells). The conditions noted are these: words. How it is done: Kinetics of ^32 Pi incorporation into the EGFR peptide. […] The reaction was initiated by addition of 50 μl of [γ-^32 P]ATP (150 μM final concentration) and terminated by addition of 50 μl of 0.5 M ATP in 90% (vol/vol) formic acid. Samples were spotted on phosphocellulose paper, washed with 1 M acetic acid/4 mM pyrophosphate, and ^32 P incorporation was measured by liquid-scintillation counting, as described. A boiled protein blank was subtracted from each data value. The data (means) represent duplicate samples from one of two similar experiments. […]
Kinetics of ceramide-induced ^32 Pi incorporation into EGFR peptide. Peptide phosphorylation was done as described in FIG. 2 in the absence (.smallcircle.) or presence (.circle-solid.) of 0.5 μM C8 -ceramide. Phosphorylated peptide was resolved by HPLC. Values (means) represent data from three experiments.
Concentration-dependence of ceramide-induced ^32 Pi incorporation into EGFR peptide. Peptide phosphorylation reactions were done as described for FIG. 2, for 2 minutes, using various concentrations of ceramide (0.001-3 μM). Phosphorylated peptide was resolved by HPLC. Values (means) represent data from three experiments. […]
Phosphorylation was initiated at 22° C. by addition of 50 μl of [γ-^32 P] ATP (150 μM final concentration; 4000 dpm/pmol). For studies with lipid activators, ceramide and other lipids were dried under N2 and resuspended in the kinase assay buffer by bath sonication for 2 minutes at 37° C.
Phosphorylated peptide was quantified by two separate methods. For initial studies, samples were spotted on phosphocellulose paper, washed in 1 M acetic acid/4 mM pyrophosphate and subjected to liquid scintillation counting, according to methods well known to those skilled in the art. Values obtained from a boiled blank or a sample lacking peptide were subtracted from each determination. Alternatively, HPLC was done according to methods well known to those skilled in the art. For these studies, samples were first applied to a C18 Sep-Pak cartridge and eluted with 99.9% acetonitrile/0.1% trifluoroacetic acid. The eluates were lyophilized, resuspended in 6 M guanidine hydrochloride/200 mM Tris, pH 8.5 and applied to a C18 reverse-phase column (Dynamax, 4.6 mm i.d., Rainin, Woburn, Mass.). The peptide was eluted with a linear gradient (1% per minute) of acetonitrile at a flow rate of 1 ml/minute and was detected by measuring the Cerenkov radiation associated with 1-ml fractions.

For series [2] the test system is unchanged.
The test system of a further series is EL-4 cells. The series is described as follows: Sphingomyelin and ceramide levels in intact EL-4 cells. In kind it is cell-based, murine. The conditions noted are these: maximally effective concentrations (n=5). How it is done: IL-1β effects on sphingomyelin levels in EL4 cells. Time course (A) and dose response (B). Cells were grown to growth arrest (1-1.5×10^6 cells ml^-1) in DME/Ham's F12 medium (1:1, v/v) containing 10% horse serum and for 48 hours [^3 H]choline (1 μCi ml^-1). On the day of an experiment, cells were resuspended back into the same medium at 10×10^6 cells ml^-1 and stimulated with 40 ng ml^-1 IL-1β for the indicated times (A) or for 30 minutes with increasing concentrations of IL-1β (B). Human IL-1β may be obtained using methods well known to those skilled in the art. Reactions were terminated with CHCl3 :CH3 OH:HCl (100:100:1) containing 10 mM EDTA (82). Lipids in the organic phase extract were dried under N2 and subjected to mild alkaline hydrolysis (0.1 M methanolic KOH for 1 hour at 37° C.) to remove glycerophospholipids. Sphingomyelin was resolved by thin-layer chromatography (TLC) using CHCl3 :CH3 OH:CH3 COOH:H2 O (60:30:8:5) as solvent, identified by iodine vapor staining, and quantified by liquid scintillation spectrometry. As previously reported, the use of [^3 H]choline as a measure of sphingomyelin content was validated by simultaneous phospholipid phosphorus measurements. Each value represents the mean±SEM of triplicate determinations from four experiments in (A), and one representative of four similar studies performed in triplicate in (B).
Effect of IL-1β on ceramide levels in EL-4 cells. Cells were stimulated as in FIG. 12 with IL-1β (40 ng ml^-1) and ceramide contained within the organic phase extract quantified enzymatically using the E. coli diacylglycerol kinase reaction. Lipids were resolved by TLC using CHCl3 :CH3 OH:CH3 COOH (65/15/5) as solvent, autoradiographed and quantified by liquid scintillation spectrometry. Each value represents the mean±SEM of triplicate determinations from 10 experiments.
The murine thymoma EL-4 cell line is a well-defined IL-1 responsive cell line that expresses functional IL-1 receptors. Upon stimulation with IL-1, these cells up-regulate the IL-2 receptor and secrete IL-2 [62]. Initial studies were designed to investigate the effects of IL-1β on cellular sphingomyelin content. Cells, grown in Dulbecco's Modified Eagle's (DME)/Ham's F-12 medium containing 10% horse serum and [^3 H]choline (1 μCi ml^-1), were resuspended back into the same medium at 10×10^6 cells ml^-1 and stimulated with IL-1β. IL-1β is commercially available.

In a further series the target is T1, KSR (Mus musculus, UniProt Q61097).
T1 sequence (Q61097 1-873): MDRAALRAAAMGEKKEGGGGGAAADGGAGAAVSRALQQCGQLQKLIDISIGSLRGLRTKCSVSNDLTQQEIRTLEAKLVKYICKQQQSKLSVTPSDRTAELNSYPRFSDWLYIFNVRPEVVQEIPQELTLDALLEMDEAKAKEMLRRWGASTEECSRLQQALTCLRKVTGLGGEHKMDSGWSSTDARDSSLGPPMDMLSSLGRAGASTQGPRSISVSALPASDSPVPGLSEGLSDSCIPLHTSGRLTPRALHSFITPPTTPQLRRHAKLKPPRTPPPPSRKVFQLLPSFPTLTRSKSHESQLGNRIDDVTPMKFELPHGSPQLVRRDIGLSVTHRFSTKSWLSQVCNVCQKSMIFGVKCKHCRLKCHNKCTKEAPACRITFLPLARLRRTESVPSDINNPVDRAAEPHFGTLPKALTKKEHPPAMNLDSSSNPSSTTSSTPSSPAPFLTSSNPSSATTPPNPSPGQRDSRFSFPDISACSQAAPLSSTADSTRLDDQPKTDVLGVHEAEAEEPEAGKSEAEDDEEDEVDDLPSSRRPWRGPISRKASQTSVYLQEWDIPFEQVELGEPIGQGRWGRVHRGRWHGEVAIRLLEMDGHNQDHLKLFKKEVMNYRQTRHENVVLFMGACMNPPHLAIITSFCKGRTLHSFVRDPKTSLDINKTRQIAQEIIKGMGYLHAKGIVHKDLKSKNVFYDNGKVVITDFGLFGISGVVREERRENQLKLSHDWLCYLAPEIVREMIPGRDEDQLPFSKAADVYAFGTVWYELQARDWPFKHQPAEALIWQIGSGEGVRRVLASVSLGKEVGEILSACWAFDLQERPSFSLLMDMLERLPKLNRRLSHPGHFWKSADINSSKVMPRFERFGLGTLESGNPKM
The series is described as follows: KSR activity toward Raf-1 peptides in vitro. Format: biochemical, mouse (KSR immunoprecipitated from COS-7 cells). Also on record: Raf-1 peptides as substrate. The conditions noted are these: for KSR activity towards substrate peptide: 30 nM ceramide, 5 min. As for the experimental part:
The wild type peptide contains eight potential phosphorylation sites (shown in bold). Substitution of alanines and glycines for serines and threonines generated one peptide (TTLP-peptide) containing only two potential phosphorylation sites (Thr^268,269) and another peptide (AALP-peptide) with no potential phosphorylation sites.
FIG. 28A--Flag-tagged KSR was immunoprecipitated from 0.2 mg COS-7 lysate, and assayed with TTLP- or AALP-peptides in the presence of 30 nM ceramide (Avanti) or diluent (DMSO). Background counts per minute (cpm) derived from samples incubated with the AALP-peptide which contains no phosphorylation sites were subtracted from all points. Background cpm always represented less than 25% of the untreated total.
FIG. 28B--Flag-tagged KSR immunoprecipitated from 0.2 mg COS-7 lysate was assayed with TTLP- or AALP-peptides in the presence of ceramide or diluent for 45 min as described in FIG. 7A.
FIG. 28C--Flag-tagged KSR was immunoprecipitated from 0.15 mg COS-7 lysate and assayed with TTLP- or AALP-peptides for 20 min in the presence of 30 nM of the indicated lipid second messengers as described in FIG. 28A (AA: arachidonic acid; LPA: lyso phosphatidic acid; PMA: phorbol 12-myristate 13-acetate; DAG: 1,2-diacylglycerol).
KSR-bound beads were incubated with reaction buffer B plus 10 mM MnCl2, 5 μM ATP and [γ-^32 P]ATP at 22° C. for the period of time indicated in the presence of 0.3 mM synthetic Raf-peptide or substrate peptides specific for other Ser/Thr protein kinases. […] (SEQ ID NO.3). Substitution of glycines and alanines for serines and threonines generated one peptide (termed TTLP-peptide) containing only two potential phosphorylation sites at Thr^268,269 (in bold), […] (SEQ ID NO. 24), and another peptide (termed AALP-peptide; SEQ ID No.6) with no potential phosphorylation sites, […] (SEQ ID No.25). The amino acid sequences of substrate peptides specific for other protein kinases (Joseph et al., 1993) are: […] (SEQ ID NO.26) (PKA); […] (SEQ ID NO.27) (S6 kinase); […] (SEQ ID NO.28)(CK II); […] (SEQ ID NO.29) (CaM kinase II); and […] (SEQ ID NO.30) (PKC). […] Substrate peptides for PKA and PKC were from Sigma (St. Louis, Mo.). The reaction was stopped by addition of a stop solution containing 0.5 M ATP in 90% formic acid. The beads were removed by centrifugation at 5000×g for 2 min and the supernatant was loaded on P81 Whatman filter paper. The filter was air dried and washed in 4 mM Na2 H2 P2 O7, 1 mM acetic acid for one hour. The filter was baked at 90° C. for 10 min and quantified by Cerenkov counting using a Beckman LS 5000TD scintillation counter. In some experiments, samples were separated by C18 reverse-phase chromatography on HPLC (Mathias et al., 1991) to verify the results of the filter assay. Virtually identical results were obtained with both methods.

Where two headings read alike, the source gives them in different places.

With `CCCCCCCCCCCCC/C=C/[C@@H](O)[C@H](CO)NC(=O)CCCCCCC` [C8-ceramide, N-octanoylsphingosine], the “effect on EGFR peptide phosphorylation” value in series [1] is “similarly effective”. For the same compound, the “maximal kinase activity, fold of control” value in series [2] (10 μM C8-cer added to medium) is recorded as 1.5 fold of control.

Consider `CNC[C@H](O)c1ccc(O)c(O)c1` [epinephrine], for which, in the series with EL-4 cells, the ceramide response result is recorded as “failed to elicit a ceramide response”.

As for `CCCCCCCCCCCCCCCC(=O)O` [palmitic acid], in series [1], the “effect on EGFR peptide phosphorylation” value was “failed to increase EGFR peptide phosphorylation”.

As to `CC1=C(/C=C/C(C)=C/C=C/C(C)=C/C(=O)O)C(C)(C)CCC1` [retinoic acid], in series [2] (cholera toxin 10 nM, retinoic acid 0.5 μM, butyrate 0.5 mM), the “effect on kinase activity in membranes of stimulated HL-60 cells” value is given as “not stimulated”.

For GRGLSLSR [PKA substrate peptide], the “KSR activity towards substrate peptide” value in the series with KSR is listed as “minimal activity”.

As for “LSSLRASTSKSGGQK [S6 kinase substrate peptide]”, in the series with KSR, the “KSR activity towards substrate peptide” value is “minimal activity”.

As for “PLARTLSVAGLPGK [CaM kinase II substrate peptide]”, in the series with KSR, the “KSR activity towards substrate peptide” value is on record as “minimal activity”.

As for “RQRGAGAPNVHMVGAALPVDGRMIE [AALP-peptide]”, the “phosphorylation of peptide by KSR” value with KSR is recorded as “negligible”.

“RQRGAGAPNVHMVGTTLPVDGRMIE [TTLP-peptide]”: in the series with KSR, the “phosphorylation of peptide by KSR” value was “same extent”.

Regarding RRREEETEEE [CK II substrate peptide], the “KSR activity towards substrate peptide” value with KSR is “minimal activity”.

As for VRKRTLRRL [PKC substrate peptide], the “KSR activity towards substrate peptide” value in the series with KSR was “minimal activity”.

As to cholera toxin, the “effect on kinase activity in membranes of stimulated HL-60 cells” value in series [2] is on record as “not stimulated”.

Regarding concanavalin A, the ceramide response result in the series on EL-4 cells is given as “failed to elicit a ceramide response”.

Turning to dihydroceramide, the “activation of KSR” value on KSR was “fail to activate KSR”.
